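Five concentrations, 48 hours, 96-well plates. The concentration for 50% growth inhibition is given as GI50. At the TGI there is no net growth.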
Tests used:
Assay in all cases: growth of human tumour cells (NCI), 48 h
CAKI-1 renal = tested on: CAKI-1 renal
SK-MEL-5 melanoma = tested on: SK-MEL-5 melanoma
NCI-H23 lung = tested on: NCI-H23 lung
OVCAR-5 ovarian = tested on: OVCAR-5 ovarian
EKVX NSCLC = tested on: EKVX NSCLC
K-562 leukemia = tested on: K-562 leukemia
MCF7 breast = tested on: MCF7 breast
ACHN renal = tested on: ACHN renal
T-47D breast = tested on: T-47D breast
TK-10 renal = tested on: TK-10 renal
DU-145 prostate = tested on: DU-145 prostate
SK-MEL-28 melanoma = tested on: SK-MEL-28 melanoma
NCI-H522 lung = tested on: NCI-H522 lung
MDA-MB-435 = tested on: MDA-MB-435
RPMI-8226 leukemia = tested on: RPMI-8226 leukemia
MOLT-4 leukemia = tested on: MOLT-4 leukemia
HOP-62 NSCLC = tested on: HOP-62 NSCLC
UO-31 renal = tested on: UO-31 renal
SW-620 colon = tested on: SW-620 colon
NCI-H460 lung = tested on: NCI-H460 lung
SR leukemia = tested on: SR leukemia
UACC-257 melanoma = tested on: UACC-257 melanoma
786-0 renal = tested on: 786-0 renal
MALME-3M melanoma = tested on: MALME-3M melanoma
OVCAR-8 ovarian = tested on: OVCAR-8 ovarian
PC-3 prostate = tested on: PC-3 prostate
SF-295 CNS = tested on: SF-295 CNS
NCI-H226 lung = tested on: NCI-H226 lung
A498 renal = tested on: A498 renal
HCT-15 colon = tested on: HCT-15 colon

`C=CCn1c(SCC(=O)Nc2ccc(C(=O)/C=C/c3ccccc3)cc2)nnc1-c1c[nH]c2ccccc12` was tested, and the TGI (CAKI-1 renal) was over 100 µM, the GI50 (SK-MEL-5 melanoma) was 3.91 µM and the TGI (SK-MEL-5 melanoma) was 15 µM. The GI50 (NCI-H23 lung) was 14.4 µM, the TGI (NCI-H23 lung) was 29.8 µM and the GI50 (OVCAR-5 ovarian) was over 100 µM. The TGI (OVCAR-5 ovarian) was over 100 µM, the GI50 (EKVX NSCLC) was 10.7 µM and the TGI (EKVX NSCLC) was over 100 µM. It also gave a GI50 (K-562 leukemia) of 3.37 µM, a TGI (K-562 leukemia) of over 100 µM and a GI50 (MCF7 breast) of 1.86 µM. The TGI (MCF7 breast) was 4.62 µM, the GI50 (ACHN renal) was 11.6 µM and the TGI (ACHN renal) was over 100 µM. For the same molecule, the GI50 (T-47D breast) was 3.78 µM, the TGI (T-47D breast) was 62.3 µM and the GI50 (TK-10 renal) was over 100 µM. For the same molecule, the TGI (TK-10 renal) was over 100 µM, the GI50 (DU-145 prostate) was 25 µM and the TGI (DU-145 prostate) was over 100 µM. It also gave a GI50 (SK-MEL-28 melanoma) of 13.5 µM, a TGI (SK-MEL-28 melanoma) of 27.9 µM and a GI50 (NCI-H522 lung) of 12.4 µM. The TGI (NCI-H522 lung) was 80.3 µM, the GI50 (MDA-MB-435) was 3.08 µM and the TGI (MDA-MB-435) was 10.6 µM. The GI50 (RPMI-8226 leukemia) was 2.36 µM, the TGI (RPMI-8226 leukemia) was 7.39 µM and the GI50 (MOLT-4 leukemia) was 4.37 µM. The TGI (MOLT-4 leukemia) was over 100 µM, the GI50 (HOP-62 NSCLC) was 47.5 µM and the TGI (HOP-62 NSCLC) was over 100 µM. The GI50 (UO-31 renal) was 5.28 µM, the TGI (UO-31 renal) was 23.1 µM and the GI50 (SW-620 colon) was 8.21 µM. For the same molecule, the TGI (SW-620 colon) was 25.5 µM, the GI50 (NCI-H460 lung) was 40.8 µM and the TGI (NCI-H460 lung) was over 100 µM. For the same molecule, the GI50 (SR leukemia) was 6.09 µM, the TGI (SR leukemia) was 92.4 µM and the GI50 (UACC-257 melanoma) was 20.5 µM. For the same molecule, the TGI (UACC-257 melanoma) was 88.7 µM, the GI50 (786-0 renal) was 20.7 µM and the TGI (786-0 renal) was 44 µM. It also gave a GI50 (MALME-3M melanoma) of 50.6 µM, a TGI (MALME-3M melanoma) of over 100 µM and a GI50 (OVCAR-8 ovarian) of 36 µM. The TGI (OVCAR-8 ovarian) was over 100 µM, the GI50 (PC-3 prostate) was 5.25 µM and the TGI (PC-3 prostate) was 64.4 µM. It also gave a GI50 (SF-295 CNS) of 5.85 µM, a TGI (SF-295 CNS) of 37 µM and a GI50 (NCI-H226 lung) of 7.06 µM. It also gave a TGI (NCI-H226 lung) of 30.6 µM, a GI50 (A498 renal) of 16.7 µM and a TGI (A498 renal) of 38.5 µM. It also gave a GI50 (HCT-15 colon) of 2.37 µM and a TGI (HCT-15 colon) of 5.53 µM.

Source: PubChem BioAssay (NCI)
